Assay results reported in patent US11252963B2, “Pesticidally active pyrazole derivatives” (SYNGENTA PARTICIPATIONS AG, priority 2017, dated 2022).
Read-outs that look alike come from different tables or passages of the source.

How the values were obtained:
Format in all cases: in vivo
[1] = tested on: Thrips tabaci (Onion Thrips); experiment: Thrips tabaci (Onion Thrips): feeding/contact activity; details: foliar, 144 h
Description: Thrips tabaci (Onion Thrips): Feeding/Contact Activity
(§1) Sunflower leaf discs were placed on agar in 24-well microtiter plates and sprayed with aqueous test solutions prepared from 10′000 ppm DMSO stock solutions. After drying the leaf discs were infested with a thrips population of mixed ages. The samples were assessed for mortality 6 days after infestation.

[2] = tested on: Tetranychus urticae (Two-Spotted Spider Mite); experiment: Tetranychus urticae (Two-Spotted Spider Mite): feeding/contact activity; details: foliar, 192 h, read-out: mortality on mixed population (mobile stages)
Description: Tetranychus urticae (Two-Spotted Spider Mite): Feeding/Contact Activity
as §1, with “Bean” for “Sunflower”, “discs” for “discs were placed”, “were” for “and”, “mite” for “thrips”, “on mixed population (mobile stages) 8” for “6”

[3] = tested on: Diabrotica balteata (Corn root worm); experiment: Diabrotica balteata (Corn root worm) mortality test on sprayed maize sprouts; details: 96 h
Description: Diabrotica balteata (Corn root worm):
Maize sprouts placed onto an agar layer in 24-well microtiter plates were treated with aqueous test solutions prepared from 10′000 ppm DMSO stock solutions by spraying. After drying, the plates were infested with L2 larvae (6 to 10 per well). The samples were assessed for mortality 4 days after infestation.

[4] = tested on: Spodoptera littoralis (Egyptian Cotton Leaf Worm); experiment: Spodoptera littoralis (Egyptian Cotton Leaf Worm): feeding/contact activity; details: foliar, 72 h
Description: Spodoptera littoralis (Egyptian Cotton Leaf Worm): Feeding/Contact Activity
Cotton leaf discs were placed onto agar in 24-well microtiter plates and sprayed with aqueous test solutions prepared from 10′000 ppm DMSO stock solutions. After drying the leaf discs were infested with five L1 larvae. The samples were assessed for mortality 3 days after infestation.

[5] = tested on: Plutella xylostella (Diamond Back Moth); experiment: Plutella xylostella (Diamond Back Moth): feeding/contact activity; details: 120 h
Description: Plutella xylostella (Diamond Back Moth): Feeding/Contact Activity
24-well microtiter plates with artificial diet were treated with aqueous test solutions prepared from 10′000 ppm DMSO stock solutions by pipetting. After drying, the plates were infested with L2 larvae (10 to 15 per well). The samples were assessed for mortality 5 days after infestation.

[6] = tested on: Euschistus heros (Neotropical Brown Stink Bug); experiment: Euschistus heros (Neotropical Brown Stink Bug): feeding/contact activity; details: 120 h
Description: Euschistus heros (Neotropical Brown Stink Bug): Feeding/Contact Activity
Soybean leaves on agar in 24-well microtiter plates were sprayed with aqueous test solutions prepared from 10,000 ppm DMSO stock solutions. After drying the leaves were infested with N2 nymphs. The samples were assessed for mortality 5 days after infestation.

[7] = tested on: Myzus persicae (Green Peach Aphid); experiment: Myzus persicae (Green Peach Aphid): feeding/contact activity; details: foliar, 144 h
Description: Myzus persicae (Green Peach Aphid): Feeding/Contact Activity
Sunflower leaf discs were placed onto agar in a 24-well microtiter plate and sprayed with aqueous test solutions prepared from 10,000 ppm DMSO stock solutions. After drying, the leaf discs were infested with an aphid population of mixed ages. The samples were assessed for mortality 6 days after infestation.

[8] = application rate 200 ppm, sunflower leaf discs sprayed, thrips population of mixed ages, assessed 6 days after infestation, read-out: mortality
[9] = application rate 200 ppm, bean leaf discs sprayed, mite population of mixed ages, assessed 8 days after infestation
[10] = application rate 200 ppm, maize sprouts sprayed, L2 larvae, assessed 4 days after infestation, read-out: mortality
[11] = application rate 200 ppm, cotton leaf discs sprayed, L1 larvae, assessed 3 days after infestation, read-out: mortality
[12] = application rate 200 ppm, artificial diet treated by pipetting, L2 larvae, assessed 5 days after infestation, read-out: mortality
[13] = application rate 200 ppm, soybean leaves sprayed, N2 nymphs, assessed 5 days after infestation, read-out: mortality
[14] = application rate 200 ppm, sunflower leaf discs sprayed, aphid population of mixed ages, assessed 6 days after infestation, read-out: mortality

Measured: mortality at 200 ppm

CCOC(=O)N(C(=O)c1cc(-c2cnn(-c3c(OC(F)F)c(C(F)(F)C(F)(F)F)nn3C)c2)cnc1Cl)C1(C#N)CC1 [Compound 16, ethyl N-[2-chloro-5-[1-[4-(difluoromethoxy)-2-methyl-5-(1,1,2,2,2-pentafluoroethyl)pyrazol-3-yl]pyrazol-4-yl]pyridine-3-carbonyl]-N-(1-cyanocyclopropyl)carbamate]
≥ 80%: [1] | [2] | [3] | [4] | [5] | [6]; in Glycine max | [7]

COC(=O)N(C(=O)c1cc(-c2cnn(-c3c(OC(F)F)c(C(F)(F)C(F)(F)F)nn3C)c2)cnc1Cl)C1(C#N)CC1 [Compound 17, methyl N-[2-chloro-5-[1-[4-(difluoromethoxy)-2-methyl-5-(1,1,2,2,2-pentafluoroethyl)pyrazol-3-yl]pyrazol-4-yl]pyridine-3-carbonyl]-N-(1-cyanocyclopropyl)carbamate]
≥ 80%: [1] | [2] | [3] | [4] | [5] | [6]; in Glycine max | [7]

COCN(C(=O)c1cc(-c2cnn(-c3c(OC(F)F)c(C(F)(F)C(F)(F)F)nn3C)c2)cnc1Cl)C1(C#N)CC1 [Compound 18, 2-chloro-N-(1-cyanocyclopropyl)-5-[1-[4-(difluoromethoxy)-2-methyl-5-(1,1,2,2,2-pentafluoroethyl)pyrazol-3-yl]pyrazol-4-yl]-N-(methoxymethyl)pyridine-3-carboxamide]
≥ 80%: [1]; [8] | [2]; [9] | [3]; [10] | [4]; [11] | [5]; [12] | [6]; [13] | [7]; [14]

Cn1nc(C(F)(F)C(F)(F)F)c(OC(F)F)c1-n1cc(-c2cnc(Cl)c(C(=O)N(C(=O)C3CC3)C3(C#N)CC3)c2)cn1 [Compound 19, 2-chloro-N-(1-cyanocyclopropyl)-N-(cyclopropanecarbonyl)-5-[1-[4-(difluoromethoxy)-2-methyl-5-(1,1,2,2,2-pentafluoroethyl)pyrazol-3-yl]pyrazol-4-yl]pyridine-3-carboxamide]
≥ 80%: [1]; [8] | [2]; [9] | [3]; [10] | [4]; [11] | [5]; [12] | [6]; [13] | [7]; [14]

CCC(=O)N(C(=O)c1cc(-c2cnn(-c3c(OC(F)F)c(C(F)(F)C(F)(F)F)nn3C)c2)cnc1Cl)C1(C#N)CC1 [Compound 20, 2-chloro-N-(1-cyanocyclopropyl)-5-[1-[4-(difluoromethoxy)-2-methyl-5-(1,1,2,2,2-pentafluoroethyl)pyrazol-3-yl]pyrazol-4-yl]-N-propanoyl-pyridine-3-carboxamide]
≥ 80%: [1]; [8] | [2]; [9] | [3]; [10] | [4]; [11] | [5]; [12] | [6]; [13] | [7]; [14]

C#CCN(C(=O)c1cc(-c2cnn(-c3c(OC(F)F)c(C(F)(F)C(F)(F)F)nn3C)c2)cnc1Cl)C1(C#N)CC1 [Compound 21, 2-chloro-N-(1-cyanocyclopropyl)-5-[1-[4-(difluoromethoxy)-2-methyl-5-(1,1,2,2,2-pentafluoroethyl)pyrazol-3-yl]pyrazol-4-yl]-N-prop-2-ynyl-pyridine-3-carboxamide]
≥ 80%: [1]; [8] | [2]; [9] | [3]; [10] | [4]; [11] | [5]; [12] | [6]; [13] | [7]; [14]

CC(=O)N(C(=O)c1cc(-c2cnn(-c3c(OC(F)F)c(C(F)(F)C(F)(F)F)nn3C)c2)cnc1Cl)C1(C#N)CC1 [Compound 22, N-acetyl-2-chloro-N-(1-cyanocyclopropyl)-5-[1-[4-(difluoromethoxy)-2-methyl-5-(1,1,2,2,2-pentafluoroethyl)pyrazol-3-yl]pyrazol-4-yl]pyridine-3-carboxamide]
≥ 80%: [1]; [8] | [2]; [9] | [3]; [10] | [4]; [11] | [5]; [12] | [6]; [13] | [7]; [14]
